Results published in patent EP0059645A1, “Method and kit for identification of beta-lactamases” (NATIONAL RESEARCH DEVELOPMENT CORPORATION, priority 1981, dated 1982).
Marks after values point to notes of the source that are not given here.

Tests used:
[1] = target: T1, Chromosomal, constitutive beta-lactamase enzyme (Enterobacter cloacae, UniProt P05364); assay: Competitive assay with nitrocefin (RSAI); format: biochemical, E. cloacae
T1 construct: Normally, therefore, the beta-lactamase has to be extracted from the cells for the purpose of the present invention; endogenous in cells

[2] = target: T2, Chromosomal, induced beta-lactamase enzyme (Pseudomonas aeruginosa, UniProt P24735); assay: Competitive assay with nitrocefin (RSAI); format: biochemical, Ps.aerug. 1937E + ampicillin
T2 construct: Normally, therefore, the beta-lactamase has to be extracted from the cells for the purpose of the present invention; endogenous in cells; host or cells: Pseudomonas aeruginosa 1937E grown with ampicillin

K10317 = assay: Competitive assay with nitrocefin (RSAI); format: biochemical, K.aerog. 10317
K17 = assay: Competitive assay with nitrocefin (RSAI); format: biochemical, Klebsiella 17
SHV-1 = SHV-1 (Escherichia coli, UniProt P0AD63); assay: 6-well visual test with nitrocefin; details: 3 minutes, room temperature
HMS-1 = assay: 6-well visual test with nitrocefin; details: 3 minutes, room temperature
OXA-2 [3] = target: T3, OXA-2 (Escherichia coli, UniProt P0A1V9); assay: 6-well visual test with nitrocefin; details: 3 minutes, room temperature
PSE-1 = PSE-1 (Pseudomonas aeruginosa, UniProt Q03170); assay: Competitive assay with nitrocefin (RSAI); format: biochemical, Ps.aerug. 1937E; parameters: Normally, therefore, the beta-lactamase has to be extracted from the cells for the purpose of the present invention; endogenous in cells
OXA-2 [4] = target: T3, OXA-2; assay: Competitive assay with nitrocefin (RSAI); format: biochemical, E. coli R46; parameters: the beta-lactamase has to be extracted from the cells for the purpose of the present invention; made in house; host or cells: E. coli carrying R46 according to the earlier reading (crude cell extract)
[5] = well A: Cefoxitin 20:1 to nitrocefin
[6] = well E: Cefoxitin 200:1 to nitrocefin

CO[C@@]1(NC(=O)Cc2cccs2)C(=O)N2C(C(=O)O)=C(COC(N)=O)CS[C@@H]21 [Cefoxi-tin, cefoxitin]
RSAI [1]: 0.01
RSAI [2]: 0.003
RSAI (K10317): 350*
RSAI (K17): 1.6
Score in 6-well visual test (SHV-1; [5]): ++
Score in 6-well visual test (SHV-1; [6]): +
Score in 6-well visual test (HMS-1; [5]): ++
Score in 6-well visual test (HMS-1; [6]): -
Score in 6-well visual test (OXA-2 [3]; [5]): -
Score in 6-well visual test (OXA-2 [3]; [6]): -
RSAI (PSE-1): 20
RSAI (OXA-2 [4]): 0.2
